These results are taken from article PMC8552062, “Contributions of UDP-Glucuronosyltransferases to Human Hepatic and Intestinal Metabolism of Ticagrelor and Inhibition of UGTs and Cytochrome P450 Enzymes by Ticagrelor and its Glucuronidated Metabolite” (Frontiers in Pharmacology, 2021).

Holding throughout (type): in vitro ADME
One data set addresses T1, CYP2C9 (Homo sapiens, UniProt P11712).
T1 construct: co-incubation ticagrelor-O-Glu with selective P450 probe substrates in HLM; tissue XenoTech LLC; host or cells: pooled human liver microsomes
In words: CYP2C9 inhibition in HLM (diclofenac 4′-hydroxylase). Here is the method:
The potential inhibitory effects of ticagrelor-O-Glu on the activities of major CYPs, i.e., CYP2B6, CYP2C8, CYP2C9, CYP2C19, CYP2D6, and CYP3A4, were evaluated by co-incubation ticagrelor-O-Glu with selective P450 probe substrates in HLM. Each incubation mixture containing 0.2 mg/ml HLM, ticagrelor-O-Glu and respective substrate (the final substrate concentrations are close to or less than the Km values: 150 μM bupropion, 1.26 μM amodiaquine, 10 μM diclofenac, 20 μM mephenytoin, 20 μM dextromethorphan and 80 μM testosterone (in house data)) in potassium phosphate buffer (100 mM, pH 7.4) was pre-incubated at 37°C for 5 min. Then, NADPH (10 mM) was added to initiate the reaction. The final volume of the incubation mixture was 100 μl. After incubation at 37°C for specific time points, the reaction was terminated by the addition of 200 μl of ice-cold methanol solution with internal standards (diazepam and furafylline). Preliminary screening experiments with selected concentrations of ticagrelor-O-Glu (0, 1, 10, or 100 μM of the final concentration) were carried out to determine the inhibition potency. For those that produced approximately 50% inhibition of CYPs enzyme activities at a ticagrelor-O-Glu concentration between 1 and 100 μM, IC50 was further determined with various concentrations of ticagrelor-O-Glu (0, 1, 5, 10, 20, 50, and 100 μM). All the experiments were performed in triplicates. The supernatant was obtained after centrifugation at 14,000 rpm for 10 min and injected into LC-MS/MS for the analysis of the respective metabolites. The formation of respective metabolites was determined to reflect P450 isoform activities. The metabolites quantified for CYP2B6, CYP2C8, CYP2C9, CYP2C19, CYP2D6, and CYP3A4 were hydroxy bupropion, N-Desethyl amodiaquine, 4′-hydroxylation diclofenac, S-4-hydroxy mephenytoin, dextrorphan and 6β-hydroxy testosterone, respectively.
The percent inhibition relative to the control was calculated to indicate the UGTs or CYPs inhibition. […]

Data set [1] deals with T2, recombinant human UGT2B17 (Homo sapiens, UniProt O75795).
T2 construct: purchased BD Gentest; host or cells: baculovirus-infected insect cells
In words: Ticagrelor glucuronidation screen, recombinant human UGT2B17. The conditions noted are these: 10 μM ticagrelor. Here is the method:
(§1) Ticagrelor glucuronidation was investigated in an in vitro incubation system by using HLM, HIM, and recombinant human UGTs. The incubation system consisted of enzyme sources (HLM, HIM, or human recombinant UGTs), various concentrations of ticagrelor (dissolved in 50% methanol, 1% v/v, 1, 2, 5, 10, 20, 50, 100, 200, 500 μM of final concentration), alamethicin (50 μg/mg protein), 5 mM MgCl2, 100 mM tris-HCL buffer (pH 7.4), and 5 mM UDPGA in a total volume of 100 μl. Alamethicin is a pore-forming polypeptide used to activate UGTs in HLM and HIM ([Fisher et al., 2000]). Preliminary studies were conducted to determine the optimal protein concentrations and incubation times. Linear conditions of ticagrelor-O-Glu formation from ticagrelor, i.e., HLM, 0.2 mg of protein/ml and 60 min, HIM, 0.2 mg of protein/ml and 60 min, and recombinant human UGTs, 0.2 mg of protein/ml and 60 min were selected. The incubation mixture without UDPGA was placed on ice for 15 min to activate UGT by alamethicin. After pre-incubation for 5 min at 37°C, the reactions were started by the addition of UDPGA. After another 60 min of incubation at 37°C, the reaction was terminated by adding 100 μl of acetonitrile containing internal standard (diazepam). The mixture vortexed for 2 min and then centrifuged at 14,000 rpm for 10 min at 4°C. […]

A further data set concerns the target T3, UGT1A9 (Homo sapiens, UniProt O60656).
T3 sequence (O60656 26-530): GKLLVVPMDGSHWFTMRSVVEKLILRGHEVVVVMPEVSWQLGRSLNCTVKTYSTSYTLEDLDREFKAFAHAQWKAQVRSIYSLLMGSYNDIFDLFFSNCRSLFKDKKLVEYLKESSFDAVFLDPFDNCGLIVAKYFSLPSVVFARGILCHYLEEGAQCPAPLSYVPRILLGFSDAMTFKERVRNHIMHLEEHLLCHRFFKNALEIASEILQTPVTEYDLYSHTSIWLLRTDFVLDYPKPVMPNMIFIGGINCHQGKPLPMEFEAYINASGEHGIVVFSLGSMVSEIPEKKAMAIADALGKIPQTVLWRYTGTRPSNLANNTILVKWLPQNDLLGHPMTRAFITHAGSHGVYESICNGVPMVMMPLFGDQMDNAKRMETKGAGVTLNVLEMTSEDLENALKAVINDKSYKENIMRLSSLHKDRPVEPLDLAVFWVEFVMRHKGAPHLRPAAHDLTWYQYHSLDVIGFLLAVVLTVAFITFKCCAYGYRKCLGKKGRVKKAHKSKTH
Nature of the data set: Ticagrelor glucuronidation by recombinant human UGT1A9. On the set-up: purchased BD Gentest; host or cells: baculovirus-infected insect cells. The conditions noted are these: recombinant human UGT1A9, pH 7.4. The protocol: as §1, with “alamethicin.” for “alamethicin. After pre-incubation for 5 min at 37°C, the reactions were started by the addition of UDPGA. After another 60 min of incubation at 37°C, the reaction was terminated by adding 100 μl of acetonitrile containing internal standard (diazepam). The mixture vortexed for 2 min and then centrifuged at 14,000 rpm for 10 min at 4°C.”
Kinetic analyses were performed using the mean values of triplicate determinations with either pooled HLM, HIM, or recombinant human UGTs. All data were analyzed by nonlinear regression analysis using the GraphPad Prism 6 (GraphPad Software Inc., CA, United States). […] Intrinsic clearance (CLint) was calculated by dividing Vmax by Km.

Data set [2] deals with T4, recombinant human UGT1A10 (Homo sapiens, UniProt Q9HAW8).
T4 construct: purchased BD Gentest; host or cells: baculovirus-infected insect cells
Nature of the data set: Ticagrelor glucuronidation screen, recombinant human UGT1A10. The note with it: 10 μM ticagrelor. Here is the method:
as §1

The IC50 is the midpoint of a concentration-inhibition curve. Broadly, the inhibition is the relative decrease from the control value, in per cent. In general, microsomal CLint refers to a measure of how fast metabolising enzymes remove a compound, apart from limits set by blood flow.

T1 sequence (P11712 whole entry): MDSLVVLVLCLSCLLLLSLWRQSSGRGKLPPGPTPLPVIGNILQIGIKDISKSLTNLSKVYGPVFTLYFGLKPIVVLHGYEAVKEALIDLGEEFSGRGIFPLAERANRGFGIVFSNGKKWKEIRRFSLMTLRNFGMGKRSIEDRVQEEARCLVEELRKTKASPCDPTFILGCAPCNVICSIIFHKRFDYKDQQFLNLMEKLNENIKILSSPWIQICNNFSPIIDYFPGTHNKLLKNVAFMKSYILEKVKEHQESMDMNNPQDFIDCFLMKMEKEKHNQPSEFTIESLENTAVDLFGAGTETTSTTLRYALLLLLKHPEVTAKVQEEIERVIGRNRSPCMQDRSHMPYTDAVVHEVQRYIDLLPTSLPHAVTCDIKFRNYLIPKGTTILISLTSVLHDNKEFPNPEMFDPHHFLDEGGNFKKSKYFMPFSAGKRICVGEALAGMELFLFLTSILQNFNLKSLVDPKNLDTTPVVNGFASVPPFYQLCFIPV
T2 sequence (O75795 24-530): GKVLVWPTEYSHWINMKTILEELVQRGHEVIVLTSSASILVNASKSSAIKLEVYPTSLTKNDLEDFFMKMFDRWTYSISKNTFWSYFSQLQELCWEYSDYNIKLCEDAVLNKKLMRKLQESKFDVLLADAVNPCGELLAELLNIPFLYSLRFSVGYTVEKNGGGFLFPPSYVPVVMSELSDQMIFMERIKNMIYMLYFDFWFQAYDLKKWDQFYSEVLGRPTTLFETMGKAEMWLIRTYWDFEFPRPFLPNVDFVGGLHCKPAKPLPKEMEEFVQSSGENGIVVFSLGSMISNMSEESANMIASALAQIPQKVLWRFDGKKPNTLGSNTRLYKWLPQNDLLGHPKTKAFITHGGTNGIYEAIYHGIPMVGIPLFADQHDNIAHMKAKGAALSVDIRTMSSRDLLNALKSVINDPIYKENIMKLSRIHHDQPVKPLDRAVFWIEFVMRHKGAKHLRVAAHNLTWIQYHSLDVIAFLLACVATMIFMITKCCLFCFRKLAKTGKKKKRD
T4 sequence (Q9HAW8 26-530): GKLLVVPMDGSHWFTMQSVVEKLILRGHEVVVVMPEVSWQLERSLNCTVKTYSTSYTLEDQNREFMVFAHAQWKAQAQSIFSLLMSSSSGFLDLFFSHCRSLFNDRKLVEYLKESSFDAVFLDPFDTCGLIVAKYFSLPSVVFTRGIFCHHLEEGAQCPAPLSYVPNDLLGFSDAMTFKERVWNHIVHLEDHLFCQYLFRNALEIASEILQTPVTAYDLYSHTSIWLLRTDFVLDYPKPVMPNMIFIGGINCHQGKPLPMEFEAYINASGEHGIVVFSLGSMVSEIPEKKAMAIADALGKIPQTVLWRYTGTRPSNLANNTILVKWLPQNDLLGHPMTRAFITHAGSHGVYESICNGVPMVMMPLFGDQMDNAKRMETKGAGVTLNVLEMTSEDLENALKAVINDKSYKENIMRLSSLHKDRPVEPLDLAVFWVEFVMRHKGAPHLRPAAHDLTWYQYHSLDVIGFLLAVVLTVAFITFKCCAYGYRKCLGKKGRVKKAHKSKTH

With `CCCSc1nc(N[C@@H]2C[C@H]2c2ccc(F)c(F)c2)c2nnn([C@@H]3C[C@H](OCCO[C@@H]4O[C@H](C(=O)O)[C@@H](O)[C@H](O)[C@H]4O)[C@@H](O)[C@H]3O)c2n1` [Ticagrelor-O-Glu, ticagrelor-O-glucuronide], half-maximal inhibition at CYP2C9 (CYP2C9, diclofenac 4′-hydroxylase, HLM 0.2 mg/ml) (IC50) was put at 20 µM. Besides, on CYP2C9 (human, human liver microsomes, pH 7.4, probe diclofenac (10 μM), 4′-hydroxylation diclofenac formation, HLM, 10 μM ticagrelor-O-Glu, read-out: inhibition of CYP2C9 enzyme activity), the inhibition at 10 μM stood at 44%. Also, on CYP2C9 (human, human liver microsomes, pH 7.4, probe diclofenac (10 μM), 4′-hydroxylation diclofenac formation, HLM, 100 μM ticagrelor-O-Glu, read-out: inhibition of CYP2C9 enzyme activity), the inhibition at 100 µM is 73.5%.
Turning to `CCCSc1nc(N[C@@H]2C[C@H]2c2ccc(F)c(F)c2)c2nnn([C@@H]3C[C@H](OCCO)[C@@H](O)[C@H]3O)c2n1` [Ticagrelor], the “glucuronidation activity for ticagrelor” value in data set [1] and in data set [2] was “no glucuronidation activities” each time. For the same molecule, the microsomal CLint on UGT1A9 worked out at 0.56 µL/min/mg.
